Experimental data published in patent publication US20150025154A1, “OPHTHALMIC COMPOSITION” (ROHTO PHARMACEUTICAL CO., LTD., priority 2012, published 2015).

Legend:
Assay type in all cases: physicochemical
[1] = Residual ratio of GGA in eye drops held in various plastic or glass containers, 40° C., 75% RH, 2 hours; details: Table 4, various container materials
Description: (§1) In accordance with the measurement conditions for the elution test described in PFSB/ELD Notification No. 0412007 “teprenone 100 mg/g fine granule”, the GGA concentration of each eye drop was determined from the area value of the 5Z-mono-cis form (Ac) and the area value of the all-trans form (At) using Japanese pharmacopoeia “teprenone reference standard (all-trans form:5Z-mono-cis form=about 6:4 (weight ratio), Pharmaceutical and Medical Device Regulatory Science Society of Japan)” or teprenone (Wako Pure Chemical Industries) as a reference standard under the HPLC measurement conditions described below. For the eye drop containing teprenone (all-trans form:5Z-mono-cis form=3:2 (weight ratio)), the GGA content was calculated by summing the amounts of the all-trans form and the 5Z-mono-cis form. […]
Five mL of each of the eye drops was poured into various plastic or glass containers (volume: 10 to 15 mL) with a glass volumetric pipette and the containers were sealed. […] The all-trans form content (g/100 mL) in each of the eye drops was quantified under the HPLC conditions described above immediately after the production and after being left to stand for a predetermined period of time, and the residual ratio (%) was calculated.

[2] = Test for residual ratio of GGA No. 2: eye drops in LDPE or HDPE eye drop containers, 40° C., 75% RH; details: Table 6, LDPE and HDPE eye drop containers
Description: To a surfactant (POE castor oil and POE hydrogenated castor oil 60) warmed to 65° C., the all-trans form and optionally ascorbyl tetraisopalmitate were added and dissolved under stirring in a hot water bath at 65° C. for 2 minutes. Water at 65° C. was added and each buffer was added under stirring to give a homogeneous solution. The pH and osmotic pressure were adjusted with hydrochloric acid or sodium hydroxide.
Ten mL of each of the thus obtained eye drops was poured into a 13 mL eye drop container (material: low density polyethylene or high density polyethylene; shape: the same as that of the container for Namida Rohto Dry Eye (trade name) (Rohto Pharmaceutical)) with a glass volumetric pipette and the container was sealed.
For these eye drops, the stability test was performed by leaving them to stand in the upright position at 40° C., 75% RH for 2 hours, 8 hours, and 24 hours. The all-trans form content (g/100 mL) in each of the eye drops was quantified by HPLC immediately after the production and after being left to stand for a predetermined period of time, and the residual ratio (%) was calculated.

[3] = Test for residual ratio of GGA No. 1: storage of eye drops in glass or PET containers; details: Tables 1 to 3, glass and PET containers
Description: as §1
A polyethylene terephthalate container (8 mL) (the container for Rohto Dryaid EX, Rohto Pharmaceutical) was completely filled with each of the eye drops in an aseptic manner. […] The teprenone or all-trans form content (g/100 mL) in each of the eye drops was quantified under the HPLC conditions described above immediately after the production and after being left to stand for a predetermined period of time, and the residual ratio (%) was calculated. […]

With CCCCCCCCCCCCCCCC(=O)OC/C=C(C)/C=C/C=C(C)/C=C/C1=C(C)CCCC1(C)C [retinol palmitate] the “Effect of added fat-soluble antioxidant on loss of the GGA content” value [1] was “greatly reduced the loss of the GGA content”.

In the case of CCCCCCCCC(CCCCCC)C(=O)OC[C@H](OC(=O)C(CCCCCC)CCCCCCCC)[C@H]1OC(=O)C(OC(=O)C(CCCCCC)CCCCCCCC)=C1OC(=O)C(CCCCCC)CCCCCCCC (stereo partly drawn) [ascorbyl tetraisopalmitate], the “Effect of added fat-soluble antioxidant on adsorption of GGA to the container wall” value [2] is reported as “reduced adsorption of GGA to the wall of the containers in a dose-dependent manner”.

In the case of Cc1cc(C(C)(C)C)c(O)c(C(C)(C)C)c1 [BHT, butylhydroxytoluene], the “Effect of added fat-soluble antioxidant on loss of the GGA content” value [3] is reported as “greatly reduced the loss of the GGA content”.
